Laboratory results taken from publication PMC7438487, “Structural studies reveal flexible roof of active site responsible for ω-transaminase CrmG overcoming by-product inhibition” (Communications Biology, 2020).

Molecular target: T1, CrmG (Actinoalloteichus sp. WH1-2216-6, UniProt H8Y6N2, W223A)
T1 construct: pET28a, N-terminal His-tag and 14 additional vector residues; expressed in E. coli BL21; dimer (114 kDa by DLS)
Assay: UV-vis conversion of PLP to PMP
Type: biochemical
Details: 0.02 mM CrmG W223A, 0.2 mM PLP, 2 mM amino donor (L-Glu, L-Gln or L-Ala), 50 mM Tris pH 7.5, 30 °C

T1 sequence (H8Y6N2 entry or part of it W223A): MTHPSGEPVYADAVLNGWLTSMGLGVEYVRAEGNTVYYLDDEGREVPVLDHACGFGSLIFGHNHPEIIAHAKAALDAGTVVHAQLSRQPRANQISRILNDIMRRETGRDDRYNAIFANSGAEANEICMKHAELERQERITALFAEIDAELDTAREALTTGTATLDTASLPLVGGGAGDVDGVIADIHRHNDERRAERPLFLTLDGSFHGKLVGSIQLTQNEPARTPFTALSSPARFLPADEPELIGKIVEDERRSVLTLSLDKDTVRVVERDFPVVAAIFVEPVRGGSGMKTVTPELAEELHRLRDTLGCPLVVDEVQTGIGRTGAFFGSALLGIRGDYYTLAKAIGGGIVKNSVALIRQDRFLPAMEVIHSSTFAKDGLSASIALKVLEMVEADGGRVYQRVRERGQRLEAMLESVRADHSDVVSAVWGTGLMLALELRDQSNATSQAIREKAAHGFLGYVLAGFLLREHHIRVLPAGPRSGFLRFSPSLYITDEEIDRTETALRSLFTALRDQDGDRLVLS

SMILES: Cc1ncc(COP(=O)(O)O)c(C=O)c1O [PLP]
- UV-vis conversion of PLP to PMP: CrmG catalyzing PLP conversion to PMP is greatly improved by the mutation W223A
